Drawing on PubChem BioAssay AID328 (DTP/NCI, 2004), this text covers T/C for 16 compounds.

The test system of the experiment is BDF1 mice, P388 leukemia ip, median survival T/C. Description: NCI In Vivo Anticancer Drug Screen. Data for tumor model P388 Leukemia (intraperitoneal) in B6D2F1 (BDF1) mice. Particulars: endpoint: median survival time, higher = longer survival. Put shortly:
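Vehicle-dosed animals serve as the reference; survival of compound-dosed, tumour-implanted mice is divided by it.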

Setting [1] is: dose: 12.5 mg/kg/injection, schedule: Q01DX009 (ip), vehicle: saline.
Setting [2] is: dose: 12.5 mg/kg/injection, schedule: Q04DX003 (ip), vehicle: saline.
The mark [3] stands for this setting: dose: 25.0 mg/kg/injection, schedule: Q04DX003 (ip), vehicle: Klucel (hydroxypropylcellulose) (HPC).
Setting [4] is: dose: 25.0 mg/kg/injection, schedule: Q04DX003 (ip), vehicle: saline.
The mark [5] stands for this setting: dose: 50.0 mg/kg/injection, schedule: Q01DX009 (ip), vehicle: saline.
The mark [6] stands for this setting: dose: 50.0 mg/kg/injection, schedule: Q04DX003 (ip), vehicle: Klucel (hydroxypropylcellulose) (HPC).
The mark [7] stands for this setting: dose: 50.0 mg/kg/injection, schedule: Q04DX003 (ip), vehicle: saline.
Where [8] appears, read: dose: 50.0 mg/kg/injection, schedule: Q01DX009 (ip), vehicle: saline with Tween-80.
The mark [9] stands for this setting: dose: 100.0 mg/kg/injection, schedule: Q01DX009 (ip), vehicle: saline with Tween-80.
[10] abbreviates: dose: 200.0 mg/kg/injection, schedule: Q01DX009 (ip), vehicle: saline with Tween-80.

Each structure is given as a SMILES string. Where “and” joins values, the source holds several entries; their conditions need not be identical. Equal values may be shown once. Inconclusive results and toxic doses are left out.

Take `CC(CN(C)C)CN1c2ccccc2Sc2ccccc21` (stereo not given): the T/C reads like this: (dose: 6.25 mg/kg/injection, schedule: Q01DX009 (ip), vehicle: saline) 100 % of control; (dose: 6.25 mg/kg/injection, schedule: Q04DX003 (ip), vehicle: saline) 100 % of control; under setting [1], 108 % of control and 90 % of control; (dose: 12.5 mg/kg/injection, schedule: Q04DX003 (ip), vehicle: Klucel (hydroxypropylcellulose) (HPC)) 100 % of control; (dose: 12.5 mg/kg/injection, schedule: Q04DX003 (ip), vehicle: saline with Tween-80) 110 % of control; under setting [2], 108 % of control. Further, the T/C (dose: 25.0 mg/kg/injection, schedule: Q01DX009 (ip), vehicle: saline with Tween-80) was 109 % of control; the T/C (dose: 25.0 mg/kg/injection, schedule: Q01DX009 (ip), vehicle: saline) is 112 % of control and 109 % of control; the T/C under setting [3] was 124 % of control; the T/C under setting [4] was 108 % of control; the T/C under setting [5] was 108 % of control; the T/C under setting [6] was 124 % of control. In addition, the T/C (dose: 50.0 mg/kg/injection, schedule: Q04DX003 (ip), vehicle: saline with Tween-80) is 89 % of control and the T/C under setting [7] is 120 % of control.
In the case of `CC[C@H]1CN(C)[C@H]2Cc3c([nH]c4ccccc34)C(=O)C[C@H]1C2C(=O)OC` (stereo not given in full), the T/C by setting is: (dose: 0.25 mg/kg/injection, schedule: Q01DX009 (ip), vehicle: other) 86 % of control; (dose: 0.5 mg/kg/injection, schedule: Q01DX009 (ip), vehicle: other) 86 % of control; (dose: 1.0 mg/kg/injection, schedule: Q01DX009 (ip), vehicle: other) 86 % of control; (dose: 2.0 mg/kg/injection, schedule: Q01DX009 (ip), vehicle: other) 95 % of control.
Consider `CCOC(=O)CCC1(C(=O)OCC)Oc2ccc(Cl)cc2C1=O` (stereo not given), for which the T/C reads like this: under setting [8], 106 % of control; under setting [9], 93 % of control; under setting [10], 108 % of control.
The matching figures for `C=CCCCCCCCCC(=O)N(CC#N)CC(C)C`: 100 % of control, 109 % of control and 109 % of control.
As to `CCC(O)(c1ccc(OC)cc1)C(c1ccccc1)c1ccccn1` (stereo not given), the T/C reads like this: (dose: 31.25 mg/kg/injection, schedule: Q01DX009 (ip), vehicle: saline with Tween-80) 103 % of control; (dose: 62.5 mg/kg/injection, schedule: Q01DX009 (ip), vehicle: saline with Tween-80) 103 % of control; (dose: 125.0 mg/kg/injection, schedule: Q01DX009 (ip), vehicle: saline with Tween-80) 100 % of control.
Regarding `CC1C(=O)CCC2(C)C1CCC1C3CCC(O)C3(C)CCC12` (stereo not given), the T/C is 95 % of control (dose: 100.0 mg/kg/injection, schedule: Q04DX003 (ip), vehicle: saline with Tween-80); 100 % of control (dose: 200.0 mg/kg/injection, schedule: Q04DX003 (ip), vehicle: saline with Tween-80); 91 % of control (dose: 400.0 mg/kg/injection, schedule: Q04DX003 (ip), vehicle: saline with Tween-80).
Consider `CC(=O)n1ccc(=O)[nH]c1=O`, for which the T/C is 102 % of control under setting [8], 110 % of control under setting [9] and 99 % of control under setting [10].
On to `Cc1ccc(C)c(N2CCN(c3ccncc3N)CC2)c1`, for which the T/C was 113 % of control (dose: 37.5 mg/kg/injection, schedule: Q04DX003 (ip), vehicle: saline with Tween-80); 122 % of control (dose: 75.0 mg/kg/injection, schedule: Q04DX003 (ip), vehicle: saline with Tween-80); 118 % of control (dose: 150.0 mg/kg/injection, schedule: Q04DX003 (ip), vehicle: saline with Tween-80).
On to `N#CC1=C(N)CCC2(C1)c1ccccc1-c1ccccc12`, for which the T/C under setting [8] was 103 % of control, the T/C under setting [9] is 88 % of control and the T/C under setting [10] is 96 % of control.
As for `C#CC1(OCC(O)CO)CCCCC1` (stereo not given), the T/C is 107 % of control (dose: 3.12 mg/kg/injection, schedule: Q01DX009 (ip), vehicle: water); 110 % of control (dose: 6.25 mg/kg/injection, schedule: Q01DX009 (ip), vehicle: water); 100 % of control (dose: 12.5 mg/kg/injection, schedule: Q01DX009 (ip), vehicle: water); 110 % of control (dose: 25.0 mg/kg/injection, schedule: Q01DX009 (ip), vehicle: water); 94 % of control (dose: 50.0 mg/kg/injection, schedule: Q01DX009 (ip), vehicle: water); 103 % of control (dose: 100.0 mg/kg/injection, schedule: Q01DX009 (ip), vehicle: water). In addition, the T/C (dose: 200.0 mg/kg/injection, schedule: Q01DX009 (ip), vehicle: water) is 103 % of control and the T/C (dose: 400.0 mg/kg/injection, schedule: Q01DX009 (ip), vehicle: water) was 118 % of control.
Take `COc1ccc(/C(=C\S(C)(=O)=O)c2cccs2)cc1`: the T/C by setting is: under setting [8], 88 % of control; under setting [9], 91 % of control; under setting [10], 105 % of control.
`Cc1cc(O)c2c(c1O)C(=O)C13C(=C2O)C(=O)C2C(O)C1C1C(O)C3C(=O)C3=C(O)c4c(O)cc(C)c(O)c4C(=O)C321` (stereo not given): the T/C was 113 % of control (dose: 2.6 mg/kg/injection, schedule: Q04DX003 (ip), vehicle: saline with Tween-80) and 118 % of control (dose: 4.0 mg/kg/injection, schedule: Q04DX003 (ip), vehicle: saline with Tween-80).
Regarding `CC1CC(C)(C)N=C(C[Si](C)(C)CC2=NC(C)(C)CC(C)O2)O1` (stereo not given), the T/C was 114 % of control under setting [3]; 109 % of control under setting [6]; 113 % of control (dose: 100.0 mg/kg/injection, schedule: Q04DX003 (ip), vehicle: Klucel (hydroxypropylcellulose) (HPC)).
As to `CC1(C)N=C(N)N=C(N)N1c1ccc(CCCCc2ccc(S(=O)(=O)F)cc2)c(Cl)c1`, the T/C was 160 % of control (dose: 0.75 mg/kg/injection, schedule: Q01DX009 (ip), vehicle: saline); 150 % of control (dose: 1.0 mg/kg/injection, schedule: Q01DX009 (ip), vehicle: saline); 151 % of control (dose: 1.5 mg/kg/injection, schedule: Q01DX009 (ip), vehicle: saline); 168 % of control (dose: 1.78 mg/kg/injection, schedule: Q01DX009 (ip), vehicle: saline); 174 % of control (dose: 2.25 mg/kg/injection, schedule: Q01DX009 (ip), vehicle: saline); 174 % of control (dose: 2.66 mg/kg/injection, schedule: Q01DX009 (ip), vehicle: saline). Also, the T/C (dose: 4.0 mg/kg/injection, schedule: Q01DX009 (ip), vehicle: saline) was 157 % of control; the T/C (dose: 4.4 mg/kg/injection, schedule: Q01DX009 (ip), vehicle: saline) was 174 % of control; the T/C (dose: 6.0 mg/kg/injection, schedule: Q01DX009 (ip), vehicle: saline) was 158 % of control; the T/C (dose: 6.6 mg/kg/injection, schedule: Q01DX009 (ip), vehicle: saline) was 173 % of control; the T/C (dose: 10.0 mg/kg/injection, schedule: Q01DX009 (ip), vehicle: saline) is 201 % of control; the T/C under setting [2] was 118 % of control. Moreover, the T/C runs as follows: (dose: 15.0 mg/kg/injection, schedule: Q01DX009 (ip), vehicle: saline) 204 % of control; (dose: 18.7 mg/kg/injection, schedule: Q01DX009 (ip), vehicle: saline) 195 % of control; (dose: 37.5 mg/kg/injection, schedule: Q01DX009 (ip), vehicle: saline) 245 % of control; under setting [7], 154 % of control; (dose: 75.0 mg/kg/injection, schedule: Q04DX003 (ip), vehicle: saline) 150 % of control.
Take `Nc1ccc(C(=O)Nc2ccc(N(CCCl)CCCl)cc2)cc1`: the T/C under setting [1] was 108 % of control; the T/C under setting [4] is 152 % of control; the T/C under setting [5] was 173 % of control; the T/C under setting [7] was 216 % of control; the T/C (dose: 100.0 mg/kg/injection, schedule: Q01DX009 (ip), vehicle: saline) was 170 % of control; the T/C (dose: 150.0 mg/kg/injection, schedule: Q01DX009 (ip), vehicle: saline) is 92 % of control.
For the compound `OC(C#CC(O)c1ccccc1)c1ccccc1` (stereo not given), the T/C is, setting by setting: (dose: 100.0 mg/kg/injection, schedule: Q04DX003 (ip), vehicle: saline) 100 % of control; (dose: 200.0 mg/kg/injection, schedule: Q04DX003 (ip), vehicle: saline) 104 % of control.
